From ChEMBL document CHEMBL1201862, “PubChem BioAssay data set” (2004)
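Interpolation was linear, between the two tested concentrations surrounding the appropriate level; five concentrations were tested over 48 hours in 96-well plates. GI50: concentration for 50% inhibition of growth.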 Active and inactive are the calls of the source. Rule as the data show it: active = GI50 up to about 1.1 µM and inactive = higher.

How the values were obtained:
Test in all cases: inhibition of tumour cell growth, NCI panel, 48 h
M14 = test system: M14
HCC 2998 = test system: HCC 2998
CCRF-CEM = test system: CCRF-CEM
SF-295 = test system: SF-295
HCT-116 = test system: HCT-116
SF-268 = test system: SF-268
EKVX = test system: EKVX
NCI-H522 = test system: NCI-H522
SK-MEL-28 = test system: SK-MEL-28
SNB-75 = test system: SNB-75
SK-MEL-5 = test system: SK-MEL-5
HL-60 = test system: HL-60
SR = test system: SR
SK-MEL-2 = test system: SK-MEL-2
MOLT-4 = test system: MOLT-4
UACC-62 = test system: UACC-62
LOX IMVI = test system: LOX IMVI
HOP-62 = test system: HOP-62
MDA-MB-231 = test system: MDA-MB-231
K562 = test system: K562

Compound	GI50 (M14)	GI50 (HCC 2998)	GI50 (CCRF-CEM)	GI50 (SF-295)	GI50 (HCT-116)	GI50 (SF-268)	GI50 (EKVX)	GI50 (NCI-H522)	GI50 (SK-MEL-28)	GI50 (SNB-75)	GI50 (SK-MEL-5)	GI50 (HL-60)	GI50 (SR)	GI50 (SK-MEL-2)	GI50 (MOLT-4)	GI50 (UACC-62)	GI50 (LOX IMVI)	GI50 (HOP-62)	GI50 (MDA-MB-231)	GI50 (K562)
OCCSCC(O)Cn1cnc2c(O)nc(Nc3ccccc3)nc21 (centres undefined)	> 100 µM (inactive)	> 100 µM (inactive)	> 100 µM (inactive)	> 100 µM (inactive)	> 100 µM (inactive)	> 100 µM (inactive)	> 100 µM (inactive)	> 100 µM (inactive)	> 100 µM (inactive)	> 100 µM (inactive)	> 100 µM (inactive)	> 100 µM (inactive)	> 100 µM (inactive)	> 100 µM (inactive)	> 100 µM (inactive)	> 100 µM (inactive)	> 100 µM (inactive)	> 100 µM (inactive)	> 100 µM (inactive)	
Cc1cc(Oc2cnc(=O)[nH]c2)cs1	> 100 µM (inactive)	> 100 µM (inactive)	> 100 µM (inactive)	> 100 µM (inactive)	> 100 µM (inactive)	> 100 µM (inactive)	> 100 µM (inactive)	> 100 µM (inactive)	> 100 µM (inactive)	> 100 µM (inactive)	> 100 µM (inactive)	> 100 µM (inactive)	> 100 µM (inactive)	> 100 µM (inactive)	> 100 µM (inactive)	> 100 µM (inactive)	> 100 µM (inactive)	> 100 µM (inactive)	> 100 µM (inactive)	> 100 µM (inactive)
C=CCN1CN(C2CCCCC2)CSC1=S	2.77 µM (inactive)	8.17 µM (inactive)	0.818 µM (active)	28.4 µM (inactive)	1.55 µM (inactive)	2.32 µM (inactive)	15.6 µM (inactive)	2.8 µM (inactive)	5.18 µM (inactive)	6.12 µM (inactive)	2.68 µM (inactive)	0.129 µM (active)	0.148 µM (active)	8.18 µM (inactive)	1.11 µM (active)	5.86 µM (inactive)	3.9 µM (inactive)	5.57 µM (inactive)	15.5 µM (inactive)	0.652 µM (active)
N#Cc1cc(C#N)c(N)nc1N	> 100 µM (inactive)	> 100 µM (inactive)	> 100 µM (inactive)	> 100 µM (inactive)	> 100 µM (inactive)		> 100 µM (inactive)	> 100 µM (inactive)		> 100 µM (inactive)	> 100 µM (inactive)	> 100 µM (inactive)	19.1 µM (inactive)	> 100 µM (inactive)	> 100 µM (inactive)	> 100 µM (inactive)	29.9 µM (inactive)	> 100 µM (inactive)	> 100 µM (inactive)	> 100 µM (inactive)
CS(=O)(=O)c1nc(Cl)c(Cl)c(C#N)c1Cl	1.91 µM (inactive)	14.2 µM (inactive)	0.998 µM (active)	16.7 µM (inactive)	2.25 µM (inactive)	6.76 µM (inactive)	6.27 µM (inactive)	0.322 µM (active)	2.12 µM (inactive)	9.89 µM (inactive)	5.12 µM (inactive)	1.15 µM (inactive)	0.736 µM (active)	5.37 µM (inactive)	0.838 µM (active)	3.31 µM (inactive)	1.95 µM (inactive)	19.3 µM (inactive)	0.619 µM (active)	0.859 µM (active)
CC(=O)N1C(Nc2cccc3nc(C)ccc23)CCN1c1ccccc1 (centres undefined)	> 10 µM (inactive)	> 10 µM (inactive)	> 10 µM (inactive)	> 10 µM (inactive)	> 10 µM (inactive)	> 10 µM (inactive)	> 10 µM (inactive)	> 10 µM (inactive)	> 10 µM (inactive)	> 10 µM (inactive)	> 10 µM (inactive)	8.2 µM (inactive)	7.19 µM (inactive)	> 10 µM (inactive)	> 10 µM (inactive)		> 10 µM (inactive)	> 10 µM (inactive)	> 10 µM (inactive)	> 10 µM (inactive)
CCCCc1ccc(-n2sc3ncc([N+](=O)[O-])cc3c2=O)cc1	17.4 µM (inactive)	12.5 µM (inactive)	7.24 µM (inactive)	10.5 µM (inactive)	8.57 µM (inactive)	13 µM (inactive)	13.6 µM (inactive)	1.2 µM (inactive)	14.1 µM (inactive)	4.22 µM (inactive)	14.6 µM (inactive)	10.4 µM (inactive)	16 µM (inactive)	1.57 µM (inactive)	20.3 µM (inactive)	8.69 µM (inactive)	13.3 µM (inactive)	14.4 µM (inactive)	11.4 µM (inactive)	
Cc1cn(C2CC(O)C(Cn3nncc3Cn3ccc(=O)[nH]c3=O)O2)c(=O)[nH]c1=O (centres undefined)	> 100 µM (inactive)	> 100 µM (inactive)	> 100 µM (inactive)	> 100 µM (inactive)	> 100 µM (inactive)	> 100 µM (inactive)	> 100 µM (inactive)	> 100 µM (inactive)	> 100 µM (inactive)	> 100 µM (inactive)	> 100 µM (inactive)	> 100 µM (inactive)	> 100 µM (inactive)	> 100 µM (inactive)	> 100 µM (inactive)	> 100 µM (inactive)	> 100 µM (inactive)	> 100 µM (inactive)	> 100 µM (inactive)	
CNc1ccc(Cl)cc1C(=O)N1CCC[C@H]1CO	> 100 µM (inactive)	> 100 µM (inactive)	> 100 µM (inactive)	> 100 µM (inactive)	> 100 µM (inactive)	> 100 µM (inactive)	> 100 µM (inactive)	> 100 µM (inactive)	> 100 µM (inactive)	99.3 µM (inactive)		> 100 µM (inactive)	80.9 µM (inactive)	> 100 µM (inactive)	> 100 µM (inactive)	> 100 µM (inactive)	> 100 µM (inactive)	> 100 µM (inactive)	> 100 µM (inactive)	> 100 µM (inactive)
CN(C(=O)c1ccc(Cl)cc1)C(=S)N1CCN(c2ccccc2)CC1	> 100 µM (inactive)	> 100 µM (inactive)	56.6 µM (inactive)	> 100 µM (inactive)		> 100 µM (inactive)		51.5 µM (inactive)	> 100 µM (inactive)	46.7 µM (inactive)	35.5 µM (inactive)	35.6 µM (inactive)	35.2 µM (inactive)	> 100 µM (inactive)	58.3 µM (inactive)	92.5 µM (inactive)	> 100 µM (inactive)		> 100 µM (inactive)	42.1 µM (inactive)
CN1C(=O)c2ccccc2OC12C=Cc1ccc(O)cc1O2 (centres undefined)	12.7 µM (inactive)	18.9 µM (inactive)	19.3 µM (inactive)	29.9 µM (inactive)	25.8 µM (inactive)	26.9 µM (inactive)	18.6 µM (inactive)	20.4 µM (inactive)	21.3 µM (inactive)	22.8 µM (inactive)	17.3 µM (inactive)	17.8 µM (inactive)	< 0.01 µM (active)	20.6 µM (inactive)	16.7 µM (inactive)	28.8 µM (inactive)	9.62 µM (inactive)	13.3 µM (inactive)	18.5 µM (inactive)	24.1 µM (inactive)
CCCCCCCC(=O)NS(=O)(=O)c1ccccc1	77.1 µM (inactive)	> 100 µM (inactive)	> 100 µM (inactive)	> 100 µM (inactive)	> 100 µM (inactive)	> 100 µM (inactive)	> 100 µM (inactive)	73.3 µM (inactive)	> 100 µM (inactive)	> 100 µM (inactive)	> 100 µM (inactive)	> 100 µM (inactive)	> 100 µM (inactive)	> 100 µM (inactive)	> 100 µM (inactive)	> 100 µM (inactive)	> 100 µM (inactive)	> 100 µM (inactive)	> 100 µM (inactive)	> 100 µM (inactive)
O/N=N/c1ccccn1.OCC1OC2OC3C(CO)OC(OC4C(CO)OC(OC5C(CO)OC(OC6C(CO)OC(OC7C(CO)OC(OC1C(O)C2O)C(O)C7O)C(O)C6O)C(O)C5O)C(O)C4O)C(O)C3O (centres undefined)	30.8 µM (inactive)	> 100 µM (inactive)	67.5 µM (inactive)	> 100 µM (inactive)	41.6 µM (inactive)	> 100 µM (inactive)	> 100 µM (inactive)	68.2 µM (inactive)	62.5 µM (inactive)	37.6 µM (inactive)	30.5 µM (inactive)	28.1 µM (inactive)	0.583 µM (active)	56.9 µM (inactive)	> 100 µM (inactive)	47.9 µM (inactive)	57.3 µM (inactive)	> 100 µM (inactive)	> 100 µM (inactive)	48.4 µM (inactive)
CC(C)[C@@H]1ON1C(C)c1ccccc1 (some centres undefined)	> 100 µM (inactive)	> 100 µM (inactive)	> 100 µM (inactive)	> 100 µM (inactive)	> 100 µM (inactive)	> 100 µM (inactive)	> 100 µM (inactive)	> 100 µM (inactive)	> 100 µM (inactive)	> 100 µM (inactive)	> 100 µM (inactive)	94.8 µM (inactive)	> 100 µM (inactive)		> 100 µM (inactive)	> 100 µM (inactive)	> 100 µM (inactive)	> 100 µM (inactive)	> 100 µM (inactive)	> 100 µM (inactive)
